One experiment relates to LOXIMVI (Melanoma). As to the kind of experiment: Bliss excess, mean over the matrix (fraction); higher = more synergy. The gist of the method: (§1)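 Cell lines in DMEM/F12 or RPMI with 10% FBS were plated in 1536-well plates, held 24 hours at 37°C, 5% CO2, then given two-drug dose matrices for 72 hours (DMSO typically 0.2%). Viability was read by CellTiter-Glo 2.0 luminescence and scaled as inhibition from 0 (vehicle wells) to 1 (blank wells). Combination Emax is the second-highest inhibition in the matrix; Bliss excess is observed combination effect minus expected EA + EB − EA·EB, EA and EB being single-agent effects.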

Experiment [1] deals with WSU-NHL (B-Cell Non-Hodgkin's Lymphoma). The experiment is described as above. Summed up:
as §1

In experiment [2] the test system is HuCCT1 (Biliary Tract Carcinoma). Described as above. Summed up:
as §1

A further experiment has as its system KS-1 (Glioblastoma). Described as above. Summed up: as §1
In experiment [3] the test system is MHH-CALL-2 (B-Lymphoblastic Leukemia). The experiment can be described thus: combination Emax (second highest fraction inhibited in the dose matrix, 72 h); higher = more inhibition; extreme values may be limits of the assay. The gist of the method: as §1
In experiment [4] the test system is BFTC-909 (Kidney Carcinoma). As to the kind of experiment: Bliss excess, mean over the matrix (fraction); higher = more synergy. Summed up:
as §1

Experiment [5] has as its system MHH-CALL-2 (B-Lymphoblastic Leukemia). The description is as above. Summed up: as §1
For experiment [6], the system named is OE21 (Esophageal Squamous Cell Carcinoma). The description is as above. Summed up:
as §1

Experiment [7] deals with NUGC-4 (Gastric Carcinoma). Described as above. Summed up:
as §1

A further experiment deals with NCI-H2052 (Mesothelioma). The experiment is described as above. Summed up: as §1
In experiment [8] the test system is NCI-H720 (Other Solid Carcinomas). As to the kind of experiment: combination Emax (second highest fraction inhibited in the dose matrix, 72 h); higher = more inhibition; extreme values may be limits of the assay. The gist of the method:
as §1

Experiment [9] shares this test system. The experiment can be described thus: Bliss excess, mean over the matrix (fraction); higher = more synergy. Summed up:
as §1
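Wherever Bliss excess, mean over the matrix is given: after 72 h of two-drug dosing.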

As for `CN(CCO)CC[C@H](CSc1ccccc1)Nc1ccc(S(=O)(=O)NC(=O)c2ccc(N3CCC([C@@H](O)c4ccccc4-c4ccc(Cl)cc4)CC3)cc2)cc1S(=O)(=O)C(F)(F)F` [AZD4320] + CC(=O)O[C@H]1C(=O)[C@@]2(C)[C@H]([C@H](OC(=O)c3ccccc3)[C@]3(O)C[C@H](OC(=O)[C@H](O)[C@@H](NC(=O)c4ccccc4)c4ccccc4)C(C)=C1C3(C)C)[C@]1(OC(C)=O)CO[C@@H]1C[C@@H]2O [Paclitaxel] (first compound max 1 µM, 7x7, partner max 3 µM), the Bliss excess amounted to 0.0164 in the experiment with LOXIMVI (Melanoma), 0.0294 in experiment [1], 0.0276 in [2] and 0.217 in the experiment on KS-1 (Glioblastoma).
As for `CN(CCO)CC[C@H](CSc1ccccc1)Nc1ccc(S(=O)(=O)NC(=O)c2ccc(N3CCC([C@@H](O)c4ccccc4-c4ccc(Cl)cc4)CC3)cc2)cc1S(=O)(=O)C(F)(F)F` [AZD4320] + Cc1cc2ncnn2cc1Nc1ncc2c(n1)n(C1CCOCC1)c(=O)n2C [AZD7648] (first compound max 1 µM, 7x7, partner max 10 µM), in experiment [3], the “combination Emax” value was 0.516. The Bliss excess was 0.023 in the experiment on LOXIMVI (Melanoma); -0.0094 in experiment [4]; 0.0839 in experiment [5]; -0.0087 in experiment [1]; -0.0407 in experiment [2]; -0.0187 in experiment [6]. The Bliss excess is -0.0725 in experiment [7], 0.0033 in the experiment on KS-1 (Glioblastoma) and -0.0451 in the experiment with NCI-H2052 (Mesothelioma).
Regarding `CN(CCO)CC[C@H](CSc1ccccc1)Nc1ccc(S(=O)(=O)NC(=O)c2ccc(N3CCC([C@@H](O)c4ccccc4-c4ccc(Cl)cc4)CC3)cc2)cc1S(=O)(=O)C(F)(F)F` [AZD4320] + Nc1ccn([C@@H]2O[C@H](CO)[C@@H](O)C2(F)F)c(=O)n1 [Gemcitabine] (first compound max 1 µM, 7x7, partner max 0.3 µM), the Bliss excess was 0.021 with LOXIMVI (Melanoma), -0.0505 in experiment [1], -0.0245 in experiment [2] and -0.0337 in the experiment with KS-1 (Glioblastoma).
As to `COc1nnc2ccc(N3CCC(c4ccc(OCCN5CCN(C)C(=O)[C@H]5C)cc4)CC3)nn12` [AZD5153] + CN(CC[C@H](CSC1=CC=CC=C1)NC2=C(C=C(C=C2)S(=O)(=O)NC(=O)C3=CC=C(C=C3)N4CCC(CC4)[C@H](C5=CC=CC=C5C6=CC=C(C=C6)Cl)O)S(=O)(=O)C(F)(F)F)CCO [AZD4320] (first compound max 1 µM, 7x7, partner max 1 µM), the “combination Emax” value in experiment [3] came out at 0.688. The Bliss excess in [4] was 0.0663; in experiment [5], 0.0512; in experiment [6] it was 0.0129; in experiment [7], 0.0299; in the experiment with NCI-H2052 (Mesothelioma) it was -0.0348.
As for `Cc1cc2ncnn2cc1Nc1ncc2c(n1)n(C1CCOCC1)c(=O)n2C` [AZD7648] + C=CCn1c(=O)c2cnc(Nc3ccc(N4CCN(C)CC4)cc3)nc2n1-c1cccc(C(C)(C)O)n1 [AZD1775] (first compound max 10 µM, partner max 1 µM), the “combination Emax” value in [8] was 0.601. In addition, the Bliss excess in the experiment with LOXIMVI (Melanoma) is -0.0123; in [4] it was 0.0097; in [1] it was 0.0072; in experiment [2], 0.0065; in experiment [6], -0.0013; in experiment [9], -0.0899. The Bliss excess in experiment [7] was -0.0417; in the experiment with KS-1 (Glioblastoma), 0.0297; with NCI-H2052 (Mesothelioma) it was -0.0039.
For the molecule `Cc1cc2ncnn2cc1Nc1ncc2c(n1)n(C1CCOCC1)c(=O)n2C` [AZD7648] + CCN(CCO)CCCOc1ccc2c(Nc3cc(CC(=O)Nc4cccc(F)c4)[nH]n3)ncnc2c1 [AZD2811] (first compound max 10 µM, 7x7, partner max 1 µM), the “combination Emax” value in [8] turned out to be 0.756. Moreover, the Bliss excess in the experiment on LOXIMVI (Melanoma) was -0.0125; in experiment [4], 0.0076; in experiment [1] it was -0.0635; in experiment [2], 0.0401; in [6], 0.0379; in experiment [9], 0.0621. The Bliss excess was -0.0257 in experiment [7], -0.0405 in the experiment with KS-1 (Glioblastoma) and -0.0104 in the experiment with NCI-H2052 (Mesothelioma).
For `Cc1cc2ncnn2cc1Nc1ncc2c(n1)n(C1CCOCC1)c(=O)n2C` [AZD7648] + CN(C)CCCOc1ccc(-c2ccc3ncc4c(c3c2)n(C2CCOCC2)c(=O)n4C)cn1 [AZD0156] (first compound max 10 µM, 7x7, partner max 1 µM), the “combination Emax” value in [8] worked out at 0.296. The Bliss excess in the experiment with LOXIMVI (Melanoma) is -0.0141; in [4] it was -0.0032; in [1], -0.0531; in [2] it was 0.0032; in experiment [6] it was -0.0629; in [9], -0.0328. For the same molecule, the Bliss excess in [7] is 0.0034; in the experiment with KS-1 (Glioblastoma) it was -0.068; in the experiment on NCI-H2052 (Mesothelioma), 0.0038.
`Cc1cc2ncnn2cc1Nc1ncc2c(n1)n(C1CCOCC1)c(=O)n2C` [AZD7648] + C[C@@H]1COCCN1C2=NC(=NC(=C2)C3(CC3)[S@](=N)(=O)C)C4=C5C=CNC5=NC=C4 [AZD6738] (first compound max 10 µM, 7x7, partner max 10 µM): in experiment [8], the “combination Emax” value came to 0.722. The Bliss excess was -0.0019 in the experiment on LOXIMVI (Melanoma); -0.0204 in [4]; -0.0181 in experiment [1]; -0.0087 in experiment [2]; -0.0793 in [6]; -0.0692 in [9]. The figures for the Bliss excess (in [7]; in the experiment with KS-1 (Glioblastoma); in the experiment with NCI-H2052 (Mesothelioma)) were -0.0673, -0.0011 and 0.0186, respectively.
With `Cc1cc2ncnn2cc1Nc1ncc2c(n1)n(C1CCOCC1)c(=O)n2C` [AZD7648] + O=C(c1cc(Cc2n[nH]c(=O)c3ccccc23)ccc1F)N1CCN(C(=O)C2CC2)CC1 [Olaparib] (first compound max 10 µM, 7x7, partner max 10 µM), the “combination Emax” value in [8] was determined as 0.316. The Bliss excess in the experiment with LOXIMVI (Melanoma) is -0.0577; in experiment [4], -0.037; in experiment [1] it was -0.057; in [2], -0.028; in [6] it was -0.088; in [9], -0.0244. Besides, the Bliss excess in [7] was -0.049; in the experiment on KS-1 (Glioblastoma), -0.0355; in the experiment on NCI-H2052 (Mesothelioma), -0.0521.

The values above are taken from the supplement of paper PMC11061612.
